# Laboratory results as given in PMC3813364 (Iranian Journal of Pharmaceutical Research : IJPR, 2013).
# Entries after “also recorded” stand apart in the source; their conditions may differ.
# Columns and labels:
# [1] = system: everted sacs of rat small intestine (jejunum); test: Paracellular (lucifer yellow) and transcellular (imipramine) marker permeability across everted gut sac with or without TPGS; assay type: in vitro ADME
# Procedure: (§1) The everted sac method was used as previously described ([25]). Everted intestinal sacs were prepared by quickly removing the small intestine from starved rats killed under CO2-anesthesia. The jejunum was excised, flushed through several times with saline solution at room temperature and placed immediately into oxygenated buffer solution at 37°C. Then the intestine was gently everted over a steel rod, filled with fresh oxygenated buffer solution and divided into sacs approximately 4.5 cm in length with silk suture. […] At the defined time points sacs were removed and blotted dry. The sacs were cut open and the serosal fluid was drained into small Eppendorf vial to determine the drug concentration. The area of each sac was calculated closely. Each sac was weighed before and after fluid collection to calculate accurately the volume inside the sac.
# (§2) The chromatographic data was acquired by Chromgate 3.1 software from Knauer. Analyses were carried out at ambient temperature on a Chromolith Performance RP-18e (100 mm 4.6 mm i.d., Merck) coupled with a Chromolith RP-18e guard cartridge (5.0 mm 4.6 mm i.d., Merck).
# [2] = system: everted sacs of rat small intestine (jejunum); test: Etoposide mucosal-to-serosal transport across everted gut sac in absence or presence of excipients/P-gp inhibitor; assay type: in vitro ADME; details: etoposide 25 μg/mL; verapamil 100 μg/mL, TPGS 0.002-0.1 mg/mL, PEG 400 0.05, 0.1 and 0.5% w/v; compared to control
# Procedure: as §1, §2
# [3] = system: everted sacs of rat small intestine (jejunum); test: LDH release of the everted gut sac; details: TPGS 0.1 mg/mL, PEG 0.5% w/v, 90 min
# Procedure: The viability and any possible damage of the gut were evaluated by measuring the release of the cytosolic enzyme lactic dehydrogenase (LDH) as an indicator of cell damage ([18]). The LDH activity was determined in the incubation media in the absence or presence of the excipients using LDH-P kit from Kimia pajouhan (Tehran, Iran). The results were calculated as U/L/cm^2 of sac area (1 unit reduces 10^-6 mol pyruvate per min at pH of 7.5). The influence of excipients (using the maximum concentrations) on the viability of gut sac was measured at 30, 60 and 90 min and compared to the control group (without adding any excipient).
Permeability of lucifer yellow ([1]; in absence of TPGS),Permeability of lucifer yellow ([1]; in presence of TPGS 0.1 mg/mL),Effect on absorptive transport/permeability of etoposide (in words) [2],LDH release in presence of excipient versus control [3],Substance
9.3 ± 0.03 × 10^-6 cm/s,9.65 ± 0.6 × 10^-6 cm/s,–,–,Lucifer yellow
–,–,no effect; also recorded: not affected,not notably changed,PEG 400
